# Data reported in article PMC10982999, “Structure-Guided Design and Optimization of Covalent VHL-Targeted Sulfonyl Fluoride PROTACs” (Journal of Medicinal Chemistry, 2024).
# Legend:
# [1] = molecular target: T1, VCB and FAM-conjugated HIF1α-derived peptide interaction (Homo sapiens, UniProt P40337); assay: Competitive fluorescence polarization (FP) assay, VCB / FAM-conjugated HIF1α-derived peptide; assay type: binding; conditions: 2 h incubation between VCB and compound; read-out: apparent IC50 (FP)
# T1 construct: human VHL (UniPort entry P40337, residues 1 -213); 6xHis followed by TEV site (N, cleaved yes); made in house; host or cells: E. coli One Shot BL21(DE3)
# Description: We next focused on developing a second generation covalent VHL binder with enhanced potency and occupancy.
# Figure 2 (A) Structure of VHL-SF2. […] (E) Competition pull-down assay from live cells between VHL-SF2-Biotin and VHL-SF2. HEK293T cells were pretreated with DMSO or varying concentrations of VHL-SF2 for 2 h at 37 °C. The cells were lysed and treated with DMSO or VHL-SF2-Biotin (50 μM) for 2 h at room temperature. A pull-down with streptavidin beads was conducted, after which the protein was resolved on SDS/PAGE. VHL and loading control GAPDH levels were visualized by Western blotting.
# Figure S3. (A) Gel-based VHL labelling of VHL-SF1-Biotin, and (B) VHL-SF2-Biotin. VCB protein was pre-treated with DMSO, VHL-SF1-Biotin or VHL-SF2-Biotin for 2 h at room temperature, after which protein was resolved on SDS -PAGE and visualised by Neutravidin […]
# Figure S4. Dose-response of VHL-SF1 following a 2 h pre-incubation in the presence of VCB and FAM-conjugated HIF1α-derived peptide, assessed by fluorescence polarization. Data […]
# Figure S5. (A) VCB was incubated with DMSO for 24 h and subjected to intact-protein LC-MS (VHL: 24784 Da). […]
# Fluorescence polarization assay protocol […]
# well plate and the plate was shaken for 1 min, before reading fluorescence polarization on a Perkin Elmer Envision 2101 plate reader (excitation 486 nm, emission 535 nm). […]
# [2] = physchem; conditions: buffer
# Description: Table S1. Sulfonyl fluoride warhead stability for VHL-SF1 and VHL-SF2 was determined in
# (1 picture or pasted object on this page, not shown here)
smiles,measurement,setting,value
"Cc1cc([C@H](C(=O)N2C[C@H](S(=O)(=O)F)C[C@H]2C(=O)N[C@@H](CC(=O)OC(C)(C)C)c2ccc(-c3scnc3C)cc2)C(C)C)on1 [VHL-SF2, tert-Butyl (S)-3-((2S,4R)-4-(Fluorosulfonyl)-1-((R)-3-methyl-2-(3-methylisoxazol-5-yl)butanoyl)pyrr-olidine-2-carboxamido)-3-(4-(4-methylthiazol-5-yl)phenyl)propanoate]",IC50,[1],35 µM
same,half-life,[2]; pH 4,38 h
same,half-life,[2]; pH 5,14 h
same,half-life,[2]; pH 6,15 h
same,half-life,[2]; pH 7.5,0.4 h
